By melting point is commonly meant the temperature of the solid-liquid transition. `CCc1nc2c(cnn2CC)c(NC2CCOCC2)c1CNC(=O)c1cccc(C(=O)NCc2ccc(Cl)c(-c3cccc(CN4CCNC(C)C4)c3)c2)c1` (stereo not drawn) yielded a melting point of 117 to 120 °C.
Next, `Cn1c(-c2ccccc2)c(CCCl)sc1=O`: 88 to 90 °C; `CCN1CC(CCCl)N(C)c2ccccc2C1=O` (stereo not drawn): 75 to 79 °C.
Then `Cc1cc(Br)ccc1NC(=O)CC(=O)O`, with 163 to 165 °C.
On to `NCc1noc(-c2ncn3c2[C@@H]2CCCN2C(=O)c2sccc2-3)n1`, for which the melting point was 156 to 158 °C.
Next, `Cc1cc(Br)c2[nH]c(=O)n(CCCN3CC=C(c4ccc(Cl)cc4)CC3)c(=O)c2c1`: 212 to 214 °C; `O=Cc1cc([N+](=O)[O-])ccc1C1SCCCS1`: 99 to 101 °C.
Then `O=[N+]([O-])c1cc(-c2nc(-c3ccco3)no2)ccc1Cl`, with 136 to 138 °C; and `Nc1ccc(Cl)nc1Nc1ccc2c(c1)OCO2`, with 162 to 163 °C.
Then `CCCCCCCCCCCCOS(=O)(=O)NC(=O)Nc1c(C(C)C)cccc1C(C)C`, with 112 to 115 °C.
For `CCCCCCCCCCCCP(=O)(O)CCCN`, the melting point is 175 to 177 °C.
Then `COC(=O)CCn1cc(Cc2cccnc2)c2cc([N+](=O)[O-])ccc21`, with 101 to 102 °C; and `Cn1cc(C2=C(c3c[nH]c4cc([N+](=O)[O-])ccc34)C(=O)NC2=O)c2ccccc21`, with above 260 °C.
Next, `CC=CCN1C(=O)c2ccccc2Oc2ncccc21`: 79 to 81 °C.
Next, `CN1C(=O)CC(c2ccc(-c3ccc(F)cc3)cc2)C1C(O)c1ccc(-c2ccccc2)s1` (stereo not drawn): 191 to 193 °C; `CC(=O)CSc1ccc(S(C)(=O)=O)cc1`: 95 to 97 °C.
As to `Nc1noc2cccc(OCCBr)c12`, the melting point lay in the range of 105 to 107 °C.
Then `CCOC(=O)C(C#N)=CNc1csc(-c2ccccc2)c1`, with 190 to 193 °C; and `COc1cc(-c2ccccc2)cc(-c2ccccc2)c1`, with 93 to 94 °C; and `C=CCc1cccc2c(=O)cc(-c3ccc(F)c(F)c3)oc12`, with 127 to 130 °C.
`CN(CCOc1ccc(CC(Sc2ccc(Cl)cc2)C(=O)O)cc1)c1nc2ccccc2o1` (stereo not drawn) gave a melting point of 156 to 157 °C.
Then `CC/C=C\Cn1c(=O)sc2c(N)ncnc21`, with 134 to 135 °C; and `COC(=O)COCc1cc2cc(C(F)(F)F)ccc2n1S(=O)(=O)c1ccccc1`, with 90 to 92 °C; and `Nc1ncnc2c1ncn2Cc1nc2cc(F)ccc2c(=O)n1-c1ccccc1Cl`, with 217 °C.
Then `[N-]=[N+]=NCC(=O)Nc1ccccc1`, with 83 °C; and `C/C(=C\C=C(c1ccccc1)c1ccccc1)C(=O)Oc1ccc([N+](=O)[O-])cc1`, with 139 to 141 °C.
Next, `COc1cc(N2CCCC2)ccc1CN1C(=O)C(C)(c2ccccc2Cl)c2cc(Cl)ccc21` (stereo not drawn): 198 °C; `CCCCCCCCCCc1ccc(C(=O)c2cc(Br)c(C(=O)c3ccc(CCCCCCCCCC)cc3)cc2Br)cc1`: 128 to 129 °C; `O=C(Oc1cccc(C(F)(F)F)c1)c1cc2cc(CCl)ccc2oc1=O`: 162 to 163 °C.
On to `COC(CCSCC=O)=NNS(=O)(=O)c1ccc(C)cc1`, for which the melting point was 94 to 96 °C.
`CC(=O)NCCc1cccc2ccc(OCCCCOc3ccc4occ(CCNC(C)=O)c4c3)cc12` returned a melting point of 160 to 162 °C.
Next, `Cc1cc(-c2oncc2CCC(=O)O)ccc1Cl`: 158 to 159 °C.
Then `C=CCNc1nc(NC(C)C)nc2ccc([N+](=O)[O-])cc12`, with 150 to 151 °C.
Then `COc1cc2c(cc1OC)CCN(C(=O)N(C)O)CC2`, with 95 to 96 °C.
As for `Cc1cccc(C(=O)c2[nH]c3cc(Cl)ccc3c2CC(=O)O)n1`, the melting point was 230 to 231 °C.
Next, `CSc1[nH]cc(Cc2ccccc2)c1[N+](=O)[O-]`: 190 to 192 °C; `CCc1nc2c(cnn2CC)c(NC2CCOCC2)c1CNC(=O)c1cc(C)cc(C(=O)NCc2ccc(OC)c(-c3cccc(C=O)c3)c2)c1`: 117 to 119 °C.
Then `COCCOc1ccc(C=O)c2cc3ccccc3cc12`, with 72 to 74 °C.
Then `CC(=O)c1cccc(C)c1NC(=O)CCl`, with 88 to 89 °C; and `CN(Cc1ccc2cc(NS(C)(=O)=O)ccc2n1)C1Cc2ccc(NS(C)(=O)=O)cc2C1` (stereo not drawn), with 189 to 191 °C.
`CC1=CC(=O)C(C(=O)C=Cc2cccs2)C(=O)O1` (stereo not drawn) came in with a melting point of 162 to 164 °C.
Then `CCOc1ccc(NCc2ccc(N(C)C)cc2)cc1`, with 98 to 99 °C.
Then `COC(=O)c1ccc(CBr)c(NC(=O)c2ccc(C(C)(C)C)cc2C(=O)OC(C)(C)C)c1`, with 135 °C; and `O=C1N(CC2CCOCC2)c2ccccc2C12COc1cc3c(cc12)OCCO3` (stereo not drawn), with 129 to 131 °C.
Then `CC(C)(C)c1ccc(OCC(O)CN2CCC3(CC2)CSC2=C(O3)c3cc(F)ccc3C(=O)C2=O)cc1` (stereo not drawn), with 114 to 116 °C.
The molecule `CCOC(=O)C1(C(=O)OCC)OC(=O)c2ccccc2C1(O)c1ccc(F)cc1` (stereo not drawn) had a melting point of 102 to 104 °C.
Next, `COC(=O)C=CC(=O)c1cc(F)ccc1N`: 80 to 84 °C.
Then `COc1cc2c(cc1C)C1(CO2)C(=O)Nc2ccccc21` (stereo not drawn), with above 250 °C; and `CC(O)(C(=O)Nc1ccc(C(=O)c2ccccc2)c(F)c1)C(F)(F)F` (stereo not drawn), with 132 to 134 °C; and `CCOC1=NC(N)=C(C(=O)OC)C(c2cccc([N+](=O)[O-])c2)C1C(=O)OC` (stereo not drawn), with 163 °C.
Next, `CCc1cc(OCc2ccc(-c3ccccc3-c3nnn(C(c4ccccc4)(c4ccccc4)c4ccccc4)n3)cc2)c2c(n1)COCC2`: 168 to 170 °C; `CSCOc1cc(Cl)ccc1C=O`: 67 to 68 °C; `CSc1cncnc1-c1ssc(=S)c1C`: 89 to 90 °C.
As for `C=C(CC(N)C(=O)OCC)CC(NC=O)(C(=O)OCC)C(=O)OCC` (stereo not drawn), the melting point was 50 °C.
Next, `CCOC(=O)c1ccc(-c2cc3c(Nc4ccc(F)c(Cl)c4)ncnc3[nH]2)cc1`: above 300 °C; `CCOc1nc(-c2ccc(NC(=O)NCc3cccnc3)cc2)ccc1C(=O)NC`: 200 °C.
For the molecule `CCCCc1cn(CCCC)c(=O)n1Cc1ccc(-c2ccccc2-c2nnn[nH]2)nc1`, the melting point lay in the range of 170 to 171 °C.
Next, `COC(=O)C1=CC(C(=O)OC)NC(=O)N1` (stereo not drawn): 177 to 179 °C; `CCOC(=O)c1ccc2nc3cscc3c(=O)n2c1`: 175 °C; `CCOC(=O)c1c(C(F)(F)F)nn(-c2c(Cl)cc(Cl)cc2Cl)c1C`: 95 to 96 °C.
Next, `CC(=O)Nc1ccc(OCc2nc3ccc(F)cc3s2)cc1`: 204 to 205 °C.
Then `CCOC(=O)CCCCSc1nnc(S)s1`, with 53 °C; and `CC(C)S(=O)(=O)Nc1cc(C(=O)c2ccccc2)ccc1[N+](=O)[O-]`, with 115 to 116 °C; and `CCCC1=C(C(=O)OCC)C(c2ccccc2OCC)c2c[nH]nc2N1` (stereo not drawn), with 203 °C.
Regarding `O=C(O)c1ccc(Cl)cc1Cc1ccccc1`, the melting point lay within 142 to 144 °C.
In the case of `O=C(COc1ccc([N+](=O)[O-])cc1)OCCO`, the melting point is 73.5 to 75.5 °C.
Next, `CC(C)c1ncc(OCc2ccccc2)c(O)n1`: 198 °C; `O=CC1C(=O)NC(=O)N1CCCCCCC(=O)O` (stereo not drawn): 224 to 225 °C; `CC1CC(=O)NN=C1c1ccc(N=CNc2ccc(C3=NNC(=O)CC3C)cc2)cc1` (stereo not drawn): 306 to 308 °C.
Next, `CN(O)C(=O)Cc1ccc2c(c1)C(=O)c1ccccc1CO2`: 118 to 120 °C; `O=C1CCC(N2C(=O)c3cccc(OCc4ccc(CN5CCN(c6ccc(F)cc6)CC5)cc4)c3C2=O)C(=O)N1` (stereo not drawn): 135 to 137 °C.
Molecule `Nc1ccc(C#CC2CC2)c(F)c1` displayed a melting point of 82 to 86 °C.
In turn, `O=C1OCCC1=Cc1ccccc1O` returned a melting point of 162 to 164 °C.
As for `COc1cc2c(c(OC)c1OC)C(CN1CCC(c3noc4cc(F)ccc34)CC1)=C2`, the melting point lay in the range of 141 to 143 °C.
Then `Cc1nc2c(F)c(F)cc(F)c2s1`, with 91 to 92 °C; and `CC(Oc1ncn(-c2ccccc2)n1)C(=O)OCc1ccccc1` (stereo not drawn), with 78 to 80 °C; and `CS(=O)(=O)Nc1ccc(OCCCc2ccc(OCCCCOc3ccccc3)cc2)c(C(=O)O)c1`, with 86 to 88 °C.
Next, `Cc1oc(-c2ccco2)nc1COc1ccc(COc2nn(Cc3ccccc3)cc2C(=O)O)cc1-c1ccccc1`: 181 to 182 °C; `CCC12CCC(=O)C3Oc4c(O)ccc5c4C31CCN(CC1CC1)C2C5` (stereo not drawn): 157 to 158 °C; `O=C(Oc1ccc2c(OC(=O)c3ccc(O)c(Cl)c3)c3ccccc3cc2c1OC(=O)c1ccc(O)c(Cl)c1)c1ccc(O)c(Cl)c1`: 238 °C.
Next, `CCN(CC)CCn1c2ccccc2c(=NN=C2SCCN2C)c2ccccc21`: 123 to 125 °C; `N#CCc1ccc(OCc2ccccc2)c([N+](=O)[O-])c1`: 91 to 97 °C; `BrCc1ccc2nc(-c3ccccc3)ccc2c1`: 126 to 127 °C.
With `CC(C)c1nn(-c2ccccc2)c(-c2ccc(F)cc2)c1CO`, the melting point was 138 to 140 °C.
Then `O=C(O)c1ccccc1-c1cc(-c2ccc(O)cc2)[nH]n1`, with 260 to 264 °C.
Next, `CC(C)[C@H](C[C@H](O)[C@H](C)NC(=O)OC(C)(C)C)C(=O)NCCN`: 55 to 62 °C; `O=C(O)C(CCCc1ccccc1)NS(=O)(=O)c1ccc(N2CCC(c3ccccc3)CC2)cc1` (stereo not drawn): 59 to 62 °C.
Then `CCCc1nc(C(C)(C)O)c(C(=O)OC(C)OC(=O)OC(C)C)n1Cc1ccc(-c2ccccc2C(=O)O)cc1` (stereo not drawn), with 94 to 96 °C.

The record behind these values is a melting point compilation (Tetko et al.; mined from patent text by program, amines drawn as free bases though some values may be those of a salt).
